# Experimental data reported in patent US10272061B2, “Compositions and methods for unoccluded transdermal oxybutynin therapy” (Allergan Sales, LLC, priority 2000, dated 2019).
# Like-named read-outs stand apart in the source and are kept apart here.
# What was measured:
# [1] = Plasma concentrations after single application of 4.4% oxybutynin topical gel to the abdomen; assay type: in vivo, human; settings: single 3 g of 4.4% oxybutynin gel, 400 cm^2 abdomen; for time over which mean plasma levels increased steadily to Cmax: 'during the following' hours
# Excerpt: (§1) A clinical study in 22 healthy volunteers, 19 to 45 years of age, evaluated plasma concentrations of oxybutynin and the N-desethyloxybutynin metabolite after a single topical application of oxybutynin gel. The study employed a single dose design to evaluate the pharmacokinetics and skin tolerability of a gel formulation for oxybutynin hydrochloride.
# Volunteers received a single topical administration of 3 g of 4.4% oxybutynin gel to a 400 cm^2 area of unbroken skin on the abdomen. Blood samples were periodically collected throughout the study period and plasma was harvested according to standard procedures. Plasma oxybutynin and N-desethyloxybutynin metabolite concentrations were estimated using a high performance liquid chromatography-tandem mass spectrometry method performed according to established guidelines.
# [2] = Plasma concentrations after single application of 13.2% oxybutynin topical gel to the abdomen; assay type: in vivo, human; settings: single 1 g of 13.2% oxybutynin gel, 133 cm^2 abdomen; for time over which mean plasma levels increased steadily to Cmax: 'during the following' hours
# Excerpt: as §1
# Volunteers received a single topical administration of 1 g of 13.2% oxybutynin gel to a 133 cm^2 area of unbroken skin on the abdomen. Blood samples were periodically collected throughout the study period and plasma was harvested according to standard procedures. Plasma oxybutynin and N-desethyloxybutynin metabolite concentrations were estimated using a high performance liquid chromatography-tandem mass spectrometry method performed according to established guidelines.
# [3] = Plasma concentrations after single and repeated application of 4.4% oxybutynin gel to the abdomen; assay type: in vivo; settings: human, topical, once daily
# Excerpt: A clinical study in 12 healthy volunteers, 19 to 41 years of age, evaluated plasma concentrations of oxybutynin and the N-desethyloxybutynin metabolite after single and repeated topical applications of oxybutynin gel. The study employed a single-period, open-label, multiple dose design to evaluate the pharmacokinetics and skin tolerability of a gel formulation for oxybutynin hydrochloride.
# Volunteers received topical administrations of 3 g of 4.4% oxybutynin gel on 3 consecutive mornings. Each volunteer received the oxybutynin gel administrations on a defined area of unbroken skin on the abdomen. Blood samples were periodically collected throughout the study period and plasma was harvested according to standard procedures. Plasma oxybutynin and N-desethyloxybutynin metabolite concentrations were estimated using high performance liquid chromatography-tandem mass spectrometry method performed according to established guidelines.
# [4] = Single and multiple dose pharmacokinetics after oxybutynin gel administration; assay type: in vivo, human; settings: for half-life: read-out: elimination half-life (converted); for mean Cmax: 72 hour evaluation
# Method: A clinical study in 20 healthy volunteers, 20 to 44 years of age, evaluated the single and multiple dose pharmacokinetics of oxybutynin and N-desethyloxybutynin following topical oxybutynin gel administration. The study employed a two-period multiple dose study.
# In the first treatment period, volunteers received a topical administration of 3 g of 4.4% oxybutynin gel followed by a 72 hour evaluation period. The second treatment period, oxybutynin gel was administered topically to the volunteers on 7 consecutive mornings. The two treatment periods were separated by a 7-day washout period. Blood samples were periodically collected throughout the study periods and plasma was harvested according to standard procedures. Plasma oxybutynin and N-desethyloxybutynin metabolite concentrations were estimated using high performance liquid chromatography-tandem mass spectrometry method performed according to established guidelines.
# After a 7-day washout following the initial gel application, subjects applied daily 3 g doses of oxybutynin gel to rotating body sites (abdomen, upper arms, thighs) for 7 consecutive days. Plasma samples were drawn each morning before the next gel application.
# [5] = Single-dose pharmacokinetics after oxybutynin gel on 400 cm^2 and 800 cm^2 application areas on the thighs; assay type: in vivo, human; settings: 3 g of 4.4% oxybutynin gel; for Cmax: at 48 hours
# Excerpt: A clinical study in 21 healthy volunteers, 21 to 45 years of age, evaluated the effect of application surface area on the single-dose pharmacokinetic of oxybutynin following topical oxybutynin gel administration. The study employed a two-period, open-labeled, randomized crossover design to evaluate the effect of application surface area on the single dose pharmacokinetics and safety of a topical gel formulation of oxybutynin hydrochloride.
# Volunteers received topical administrations of 3 g of 4.4% oxybutynin gel at the beginning of two 72 hour treatment periods, with a minimum six day washout separating the treatment periods. Each volunteer received a dose applied to a 400 cm^2 area in one treatment period, and a dose to an 800 cm^2 area the other treatment period. The sequential order of the treatment periods was randomized. Blood samples were periodically collected throughout the study periods and plasma was harvested according to standard procedures. Plasma oxybutynin and N-desethyloxybutynin metabolite concentrations were evaluated using high performance liquid chromatography-tandem mass spectrometry method performed according to established guidelines.
# [6] = human, topical, plasma, read-out: elimination half-life (converted)
# [7] = first period: single 3 g of 4.4% oxybutynin gel
# [8] = plasma, first period: single 3 g of 4.4% oxybutynin gel
# [9] = second period, after the final of 7 daily gel applications
# [10] = second period: 7 consecutive daily 3 g gel applications
# [11] = 400 cm^2 application area, thighs
# [12] = 800 cm^2 application area, thighs
smiles,measurement,setting,value
CCN(CC)CC#CCOC(=O)C(O)(c1ccccc1)C1CCCCC1 (stereo not shown) [oxybutynin],Cmax,"[1]; human, plasma, topical, healthy volunteers, read-out: mean maximum plasma concentration (Cmax)",2.17 ng/mL
same,half-life,[1]; [6],~18.4 h
same,time of second plasma peak after dosing,[1],approximately 48 hours
same,time at which measurable plasma levels were detectable (first sampling point),[1]; healthy volunteers,2 h
same,time over which mean plasma levels increased steadily to Cmax,[1],24 h
same,Cmax,"[2]; human, topical, plasma, healthy volunteers",1.17 ng/mL
same,half-life,[2]; [6],17.7 h
same,time of second plasma peak after dosing,[2],approximately 48 hours
same,time at which measurable plasma levels were detectable (first sampling point),[2]; healthy volunteers,2 h
same,time over which mean plasma levels increased steadily to Cmax,[2],26 h
same,concentration at 24 h,"[3]; plasma, 3 g of 4.4% oxybutynin gel, after the initial application of 3 g of 4.4% oxybutynin gel, read-out: plasma concentration at the 24 hour post-dose timepoint, mean±SD",4.02 ± 2.19 ng/mL
same,concentration at 24 h,"[3]; plasma, 3 g of 4.4% oxybutynin gel, after the second daily application of 3 g of 4.4% oxybutynin gel, read-out: plasma concentration 24 hours after application, mean±SD",4.47 ± 2.38 ng/mL
same,concentration at 24 h,"[3]; plasma, 3 g of 4.4% oxybutynin gel, after the third daily application of 3 g of 4.4% oxybutynin gel, read-out: plasma concentration at the 24 hour post-dose timepoint, mean±SD",5.86 ± 3.17 ng/mL
same,half-life,"[3]; 3 g of 4.4% oxybutynin gel, plasma elimination after the third application of 4.4% oxybutynin gel, read-out: apparent half-life (converted)",~18 h
same,Cmax,"[3]; plasma, following the third application of 3 g of 4.4% oxybutynin gel, read-out: Cmax, mean±SD",6.05 ± 3.21 ng/mL
same,average plasma concentration during the 20 hours following the application,[4]; after the final of 7 daily 3 g gel applications,6.22 ng/mL
same,mean oxybutynin AUC higher than mean N-desethyloxybutynin AUC,[4]; [7],~41%
same,mean oxybutynin Cmax higher than mean N-desethyloxybutynin Cmax,[4]; [7],approximately 18%
same,time within which measurable plasma levels were detectable,[4]; [7],two
same,Cmax,"[4]; human, plasma, topical, 3 g of oxybutynin gel, once daily, second period: 7 consecutive daily 3 g gel applications, N-desethyloxybutynin: maximum for the 0-24 hour interval, read-out: mean Cmax following the final gel application",9.01 ng/mL
same,concentration at 0 h,"[4]; human, plasma, topical, 3 g of oxybutynin gel, once daily, second period: 7 consecutive daily 3 g gel applications, read-out: mean plasma concentration at Time 0 of the final gel application",4.63 ng/mL
same,half-life,"[4]; human, topical, 3 g of oxybutynin gel, once daily, plasma, after the final of 7 daily 3 g gel applications",~24 h
same,AUC,"[4]; human, topical, 3 g of oxybutynin gel, once daily, plasma, second period, first 24 hours after the final of 7 daily 3 g gel applications",149 ng·h/mL
same,AUC,"[4]; human, topical, plasma, first period: single 3 g of 4.4% oxybutynin gel, 72 hour treatment period",186 ng·h/mL
same,half-life,"[4]; human, topical, plasma, first period: single 3 g of 4.4% oxybutynin gel",~18 h
same,mean Cmax,[4]; [8],6.35 ng/mL
same,mean oxybutynin AUC higher than mean N-desethyloxybutynin AUC,[4]; [9],~19%
same,mean oxybutynin Cmax higher than mean N-desethyloxybutynin Cmax,[4]; [9],approximately 40%
same,time of maximum concentration after the final gel application,[4]; [10],approximately 23 hours
same,time at which measurable plasma levels were detectable,[5]; [11],2 h
same,time of the initial plasma peak,[5]; [11],24 h
same,plasma peak during the first 24 hours following dosing,[5]; [12],2.92 ng/mL
same,concentration at 24 hours,"[5]; human, plasma, topical, 400 cm^2 application area, thighs, read-out: mean plasma level at the initial peak",2.25 ng/mL
same,Cmax,"[5]; human, topical, plasma, 800 cm^2 application area, read-out: Cmax",3.8 ng/mL
CCNCC#CCOC(=O)C(O)(c1ccccc1)C1CCCCC1 (stereo not shown) [N-desethyloxybutynin],elimination half-life,[1]; plasma,approximately 26.81 hours
same,time of second plasma peak after dosing,[1],approximately 48 hours
same,mean maximum plasma concentration (Cmax),[1]; healthy volunteers,2.20 ng/mL
same,time at which measurable plasma levels were detectable (first sampling point),[1]; healthy volunteers,2 h
same,time over which mean plasma levels increased steadily to Cmax,[1],28 h
same,elimination half-life,[2]; plasma,19.53 h
same,mean Cmax,"[2]; plasma, healthy volunteers",1.12 ng/mL
same,time of second plasma peak after dosing,[2],approximately 48 hours
same,time at which measurable plasma levels were detectable (first sampling point),[2]; healthy volunteers,2 h
same,time over which mean plasma levels increased steadily to Cmax,[2],28 h
same,mean Cmax,[4]; [8],4.50 ng/mL
same,mean AUC,"[4]; plasma, first period: single 3 g of 4.4% oxybutynin gel, 72 hour treatment period",157 ng·h/mL
same,mean AUC,"[4]; plasma, second period, first 24 hours after the final of 7 daily 3 g gel applications",125 ng·h/mL
same,time of maximum concentration after the final gel application,[4]; [10],approximately 16 hours
same,mean Cmax following the final gel application,"[4]; second period: 7 consecutive daily 3 g gel applications, N-desethyloxybutynin: maximum for the 0-24 hour interval",6.44 ng/mL
same,mean plasma level at the initial peak,[5]; [11],2.21 ng/mL
same,time at which measurable plasma levels were detectable,[5]; [11],≤ 2 h
same,time of the initial plasma peak,[5]; [11],28 h
same,plasma peak during the first 24 hours following dosing,[5]; [12],2.39 ng/mL
same,Cmax,"[5]; plasma N-desethyloxybutynin, 400 cm^2 application area",2.72 ng/mL
same,Cmax,"[5]; plasma, 800 cm^2 application area",3.40 ng/mL
